Data on 14 compounds can be found in US11591299B1, “Prodrug compound of levosimendan, preparation method and use thereof” (Beijing Chenguang Tongchuang Pharmaceutical Research …, priority 2022, dated 2023).

The nature of series [1]: Solubility determination in water (Chinese Pharmacopoeia 2020 solubility test method). Format: physicochemical. Particulars: 25° C.±2° C., dissolution observed within 30 minutes. How it is done:
The determination is based on the solubility test method in General Example 15 of Part IV in “Chinese Pharmacopoeia (2020 Edition)”: the test product was ground into fine powders, and water at about 25° C. is added in a certain water bath at 25° C.±2° C., and shaken vigorously for 30 seconds every 5 minutes, to observe the dissolution within 30 minutes. If there are no visible solute particles, it is regarded as complete dissolution.

Series [2] is described as follows: Pharmacokinetic study: metabolism of prodrug and conversion to levosimendan in plasma after in vivo administration. The conditions noted are these: for ranking of metabolic conversion rates among the 13 prodrug molecules: in plasma within 10 minutes. How it is done: FIGS. 4-6 are the change profile of the content of compound TCX1001-031 itself in plasma after administration in the pharmacokinetic study, the change profile of the content of released levosimendan, and the pharmacokinetic metabolic conversion rate, respectively.
The conversion rates of these compounds to levosimendan in plasma within 10 minutes are approximately 30-45%.

For series [3] the following is noted: general statement, no test described; cited from earlier work.

Bounds are passed on as bounds.

For `C[C@@H]1CC(=O)N(COC(=O)CC(=O)O)N=C1c1ccc(NN=C(C#N)C#N)cc1` [TCX-1001-041, (R)-(3-((4-(2-(dicyanomethylene)hydrazino)phenyl)-4-methyl-6-oxo-5,6-dihydropyridazin-1(4H)-yl)methyl 2-carboxyl acetate], in series [1], the solubility in water result was “[drawing 12] Rp = carboxylmethyl Chemical name: (R)-(3-((4-(2- (dicyanomethylene)hydrazino)phenyl)- 4-methyl-6-oxo-5,6-dihydropyridazin- 1(4H)-yl)methyl 2-carboxylacetate (TCX-1001-041) This product is slightly soluble in water”.

In the case of `C[C@@H]1CC(=O)N(COC(=O)c2cccnc2)N=C1c1ccc(NN=C(C#N)C#N)cc1` [TCX-1001-029, (R)-(3-((4-(2-(dicyanomethylene)hydrazino)phenyl)-4-methyl-6-oxo-5,6-dihydropyridazin-1(4H)-yl)methyl nicotinate], the “ranking of metabolic conversion rates among the 13 prodrug molecules” value (“ranking” for short) in series [2] is listed as “highest”. For the same compound, the solubility in water result in series [1] is “[drawing 7] Rp = pyridin-3-yl Chemical name: (R)-(3-((4-(2- (dicyanomethylene)hydrazino)phenyl)- 4-methyl-6-oxo-5,6-dihydropyridazin- 1(4H)-yl)methyl nicotinate (TCX-1001-029) This product is extremely slightly soluble in water”.

For `C[C@@H]1CC(=O)N(COC(=O)CN)N=C1c1ccc(NN=C(C#N)C#N)cc1` [TCX-1001-032, (R)-(3-((4-(2-(dicyanomethylene)hydrazino)phenyl)-4-methyl-6-oxo-5,6-dihydropyridazin-1(4H)-yl)methyl glycinate], in series [1], the solubility in water entry is “[drawing 9] Rp = aminomethyl Chemical name: (R)-(3-((4-(2- (dicyanomethylene)hydrazino)phenyl)- 4-methyl-6-oxo-5,6-dihydropyridazin- 1(4H)-yl)m ethyl glycinate (TCX-1001-032) This product is slightly soluble in water”.

For `C[C@@H]1CC(=O)N(COC(=O)c2ccc(CN3CCOCC3)cc2)N=C1c1ccc(NN=C(C#N)C#N)cc1` [TCX-1001-031], the “ranking” value in series [2] is reported as “highest”. Besides, the “time to complete metabolism of the prodrug (content drops to 0)” value in series [2] (plasma, after in vivo administration) is at most 1 min. In series [1], the solubility in water result is “[drawing 4] Rp = 4-(morpholin-1-ylmethyl)phenyl Chemical name: (R)-(3-((4-(2- (dicyanomethylene)hydrazino)phenyl)- 4-methyl-6-oxo-5,6-dihydropyridazin- 1(4H)-yl)methyl 4-(morpholin-1-ylmethyl)benzoate (TCX-1001-031) This product is sparingly soluble in water”.

`C[C@@H]1CC(=O)N(COC(=O)CC(=O)NCc2ccncc2)N=C1c1ccc(NN=C(C#N)C#N)cc1` [TCX-1001-036]: the solubility in water entry in series [1] is “[drawing 10] Rp = pyridin-4-ylmethylaminoformylmethyl Chemical name: (R)-(3-((4-(2- (dicyanomethylene)hydrazino)phenyl)- 4-methyl-6-oxo-5,6-dihydropyridazin- 1(4H)-yl)methyl 3-oxo-3-((pyridin-4-ylmethyl)amino)propionate (TCX-1001-036) This product is extremely slightly soluble in water”.

In the case of `C[C@@H]1CC(=O)N(COC(=O)c2ccc(CN3CCN(C)CC3)cc2)N=C1c1ccc(NN=C(C#N)C#N)cc1` [TCX-1001-033], in series [2], the “ranking” value is “highest”. In addition, the solubility in water result in series [1] is “[drawing 5] Rp = 4-(4-methylpiperazin-1-ylmethyl)phenyl Chemical name: (R)-(3-((4-(2- (dicyanomethylene)hydrazino)phenyl)- 4-methyl-6-oxo-5,6-dihydropyridazin- 1(4H)-yl)methyl 4-((4- methylpiperazin-1-yl)methyl)benzoate (TCX-1001-033) This product is sparingly soluble in water”.

`C[C@@H]1CC(=O)N(COC(=O)OCC(=O)O)N=C1c1ccc(NN=C(C#N)C#N)cc1` [TCX-1001-035, (R)-(3-((4-(2-(dicyanomethylene)hydrazino)phenyl)-4-methyl-6-oxo-5,6-dihydropyridazin-1(4H)-yl)methyl carboxylmethyloxyformate]: the solubility in water result in series [1] is “[drawing 14] Rp = carboxylmethoxy Chemical name: (R)-(3-((4-(2- (dicyanomethylene)hydrazino)phenyl)- 4-methyl-6-oxo-5,6-dihydropyridazin- 1(4H)-yl)methyl carboxylmethyloxyformate (TCX-1001-035) This product is slightly soluble in water”.

Consider `C[C@@H]1CC(=O)N(COC(=O)CN(C)C)N=C1c1ccc(NN=C(C#N)C#N)cc1` [TCX-1001-030], for which the “ranking” value in series [2] is “highest”. Further, in series [1], the solubility in water entry was “[drawing 6] Rp = N,N-dimethylaminomethyl Chemical name: (R)-(3-((4-(2- (dicyanomethylene)hydrazino)phenyl)- 4-methyl-6-oxo-5,6-dihydropyridazin- 1(4H)-yl)m ethyl N,N- dimethylglycinate (TCX-1001-030) This product is slightly soluble in water”.

In the case of `C[C@@H]1CC(=O)N(COC(=O)COP(=O)(O)O)N=C1c1ccc(NN=C(C#N)C#N)cc1` [TCX-1001-040, (R)-(3-((4-(2-(dicyanomethylene)hydrazino)phenyl)-4-methyl-6-oxo-5,6-dihydropyridazin-1(4H)-yl)methyl phosphoryloxyacetate], in series [1], the solubility in water entry was “[drawing 15] Rp = phosphoryloxymethyl Chemical name: (R)-(3-((4-(2- (dicyanomethylene)hydrazino)phenyl)- 4-methyl-6-oxo-5,6-dihydropyridazin- 1(4H)-yl)methyl phosphoryloxyacetate (TCX-1001-040) This product is extremely soluble in water”.

Consider `C[C@@H]1CC(=O)NN=C1c1ccc(NN=C(C#N)C#N)cc1` [Levosimendan, (R)-[[4-(1,4,5,6-tetrahydro-4-methyl-6-oxo-pyridazin-3-yl)phenyl]-hydrazono]-malononitrile], for which, in series [3], the “solubility of levosimendan in most organic solvents” value was “insoluble or extremely poorly soluble” and the “solubility of levosimendan in water” value was “insoluble”.

On to `C[C@@H]1CC(=O)N(COC(=O)COS(=O)(=O)O)N=C1c1ccc(NN=C(C#N)C#N)cc1` [TCX-1001-038, (R)-(3-((4-(2-(dicyanomethylene)hydrazino)phenyl)-4-methyl-6-oxo-5,6-dihydropyridazin-1(4H)-yl)methyl sulfonyloxyacetate], for which, in series [1], the solubility in water entry was “[drawing 16] Rp = sulfonyloxymethyl Chemical name: (R)-(3-((4-(2- (dicyanomethylene)hydrazino)phenyl)- 4-methyl-6-oxo-5,6-dihydropyridazin- 1(4H)-yl)methyl sulfonyloxyacetate (TCX-1001-038) This product is extremely soluble in water”.

Consider `C[C@@H]1CC(=O)N(COC(=O)CN2CCCC2)N=C1c1ccc(NN=C(C#N)C#N)cc1` [TCX-1001-039], for which the solubility in water result in series [1] is “[drawing 11] Rp = pyrrolidin-1-ylmethyl Chemical name: (R)-(3-((4-(2- (dicyanomethylene)hydrazino)phenyl)- 4-methyl-6-oxo-5,6-dihydropyridazin- 1(4H)-yl)methyl 2-pyrrolidin-1-yl- acetate (TCX-1001-03 9) This product is slightly soluble in water”.

Regarding `C[C@@H]1CC(=O)N(COC(=O)N2CCC(N3CCCCC3)CC2)N=C1c1ccc(NN=C(C#N)C#N)cc1` [TCX-1001-037], the solubility in water entry in series [1] was “[drawing 8] Rp = 4-(piperidin-1-yl)-piperidin-1-yl Chemical name: (R)-(3-((4-(2- (dicyanomethylene)hydrazino)phenyl)- 4-methyl-6-oxo-5,6-dihydropyridazin- 1(4H)-yl)methyl 4-(piperidin-1-yl)piperidin-1-ylformate (TCX-1001-037) This product is sparingly soluble in water”.

In the case of `C[C@@H]1CC(=O)N(COC(=O)CCC(=O)O)N=C1c1ccc(NN=C(C#N)C#N)cc1` [TCX-1001-034], the solubility in water entry in series [1] was “[drawing 13] Rp = carboxyl ethyl Chemical name: (R)-(3-((4-(2- (dicyanomethylene)hydrazino)phenyl)- 4-methyl-6-oxo-5,6-dihydropyridazin- 1(4H)-yl)methyl 3-carboxylpropionate (TCX-1001-034) This product is slightly soluble in water”.
